Entries after “also recorded” stand apart in the source; their conditions may differ.
Experiments:
Format in all cases: in vivo, Sprague-Dawley rats
[1] = system: APAP-induced nephrotoxicity; assay: Serum creatinine and BUN (kidney function) in APAP-induced toxicity animal model; conditions: SD-rats, mean ± SD
Method: (§1) Male Sprague-Dawley rats (weighing 220-300 g) were obtained from Professor Dr. Gonzalez of the American Country Health Research Institute (USA), introduces three male and four female mice, pairs voluntarily reproduces. All of the experiments were performed in adherence with the National Institutes of Health Guidelines for the treatment of animals. All of the mice were maintained in a room with air/humidity control and a 12-h light/dark cycle, and allowed access to food and water ad libitum throughout the experiment.
(§2) In the single dose study of the antidote effect of APAP metabolic enzyme inhibition on APAP-induced nephrotoxicity, rats were randomly divided into 3 treatment groups: (1) a normal control group (NC, n=5), in which normal SD-rats were orally administrated with saline four times a day for multiple doses at a volume of 1 mL/kg; (2) an APAP control group (APAP, n=5), in which normal SD-rats were orally administrated with APAP in saline at dose of 1 g/kg (1,000 mg/kg) for single oral dose administration; (3) an positive control group (NAC, n=5), in which normal SD-rats were orally administrated with APAP and N-acetylcysteine (NAC) in saline at dose of 1 g/kg and 140 mg/kg for single oral dose administration; (4) the various selected antidote test groups (each groups, n=5), in which normal SD-rats were orally administered with APAP in saline at dose of 1,000 mg/kg and e various antidote agents each at dose of less than or equivalent to 200 mg per 60 kg person body weight of single oral dose administration. In addition, according to US FDA Guidance for Industry “Estimating the Maximum Safe Starting Dose in Initial Clinical Trials for Therapeutics in Adult Healthy Volunteers”, the HED (human equivalent dose) for a human adult of 60 kg can be calculated as follows: HED=animal dose (1,000 mg/kg in rats)×human body weight (60 kg)/6.2=9.677g (about 10 g).
(§3) At the end of the treatment, the animals were sacrificed under diethyl ether anesthesia. Blood was collected from the hearts of the mice into heparin tubes, and plasma was separated by centrifugation at 13,000×g for 5 min at 4° C. Aliquots of plasma were transferred to Eppendorf tubes and stored at −80° C. until analysis.
Serum creatinine and BUN levels were measured using the commercial kits (BEN) (Biochemical Enterprise, Milano, Italy) CR280 and BK151 in an automatic biochemical analyzer (ChemWell, Palm City, Fla.) at 340 nm and 510 nm, respectively.
(§4) All data are represented in mean ± standard deviation (SD) and the results are calculated using ANOVA to determine the significance. Statistical Package of the Social Science program (Version 13, SPSS Inc.) is used for calculations followed by post hoc test to examine the least significant difference for multiple comparisons so as to confirm the significant differences between groups and the average difference between groups was significant p<0.05.

[2] = system: APAP-induced hepatotoxicity; assay: Plasma AST and ALT determination in APAP-induced toxicity animal model; conditions: SD-rats, mean ± SD
Method: as §1
In the single dose study […], rats were randomly divided into 3 treatment groups: (1) a normal control group (NC, n=5), in which normal SD-rats were orally administrated with saline four times a day for multiple doses at a volume of 1 mL/kg; (2) an APAP control group (APAP, n=5), in which normal SD-rats were orally administrated with APAP in saline at dose of 1 g/kg (1,000 mg/kg) for single oral dose administration; (3) an positive control group (NAC, n=5), in which normal SD-rats were orally administrated with APAP and N-acetylcysteine (NAC) in saline at dose of 1 g/kg and 140 mg/kg for single oral dose administration; (4) the various selected antidote test groups (each groups, n=5), in which normal SD-rats were orally administered with APAP in saline at dose of 1,000 mg/kg and e various antidote agents each at dose of less than or equivalent to 200 mg per 60 kg person body weight of single oral dose administration. In addition, according to US FDA Guidance for Industry “Estimating the Maximum Safe Starting Dose in Initial Clinical Trials for Therapeutics in Adult Healthy Volunteers”, the HED (human equivalent dose) for a human adult of 60 kg can be calculated as follows: HED=animal dose (1,000 mg/kg in rats)×human body weight (60 kg)/6.2=9.677g (about 10 g).
as §3
Plasma enzyme activities (aspartate aminotransferase [AST] and alanine aminotransferase [ALT]) were determined at 37° C. by using a Synchron LXi 725 (Beckman Instruments, Palo Alto, Calif. USA) with kits provided by the manufacturer.
as §4

[3] = system: APAP-induced renal lesions; assay: Histological examination of kidney (H&E) in APAP-induced toxicity animal model; conditions: H&E stained kidney section, 200×
Method: as §1, §2
The kidney groups were fixed in 10% neutral formalin for 48-72 h. Then, tissues were trimmed and processed for a routine histopathological examination. […]

[4] = system: toxicity (nephrotoxicity and hepatotoxicity) caused by APAP; assay: Overall antidote activity against toxicity caused by APAP (animal model); conditions: rats given APAP 1,000 mg/kg; summary of Table 1
Method: as §1, §2

[5] = APAP alone 1,000 mg/kg single oral dose (toxicity control group), n=5
[6] = APAP alone 1,000 mg/kg single oral dose (toxicity control group), n=5, listed as AAP
[7] = APAP 1,000 mg/kg oral plus antidote at high dose
[8] = APAP 1,000 mg/kg oral plus antidote at low dose
[9] = APAP 1,000 mg/kg single oral dose plus antidote single oral dose, n=5

SMILES: CC(=O)Nc1ccc(O)cc1 [APAP, N-acetyl-para-aminophenol]
- BUN (nephrotoxicity) [1, 5]: 87.8 ± 6.6 mg/dL
- Creatinine (nephrotoxicity) [1, 5]: 1.13 ± 0.17 mg/dL
- BUN (nephrotoxicity) [1, 6]: 87.8 ± 6.6 mg/dL
- Creatinine (nephrotoxicity) [1, 6]: 1.13 ± 0.17 mg/dL
- ALT (hepatotoxicity) [2, 5]: 382.3±32.1 IU/L
- AST (hepatotoxicity) [2, 5]: 591.0±59.2 IU/L
- ALT (hepatotoxicity) [2, 6]: 382.3 ± 32.1 IU/L
- AST (hepatotoxicity) [2, 6]: 591.0 ± 59.2 IU/L
- Kidney histology (renal lesions), FIG. 1 ([3]; acetaminophen 1 g/kg alone): severe renal lesions including necrosis, congestion and extravasation of red blood cells
- Kidney histology (renal lesions), FIG. 1 ([3]; acetaminophen 1 g/kg alone, listed as acetaminophen): Severe necrosis, congestion and extravasation of red blood cells were seen

SMILES: O=c1c(O)c(-c2ccc(O)cc2)oc2cc(O)cc(O)c12 [Kaempferol]
- BUN (nephrotoxicity) [1, 7]: 31.5 ± 7.6 mg/dL
- Creatinine (nephrotoxicity) [1, 7]: 0.38 ± 0.09 mg/dL
- BUN (nephrotoxicity) [1, 8]: 58.8 ± 7.0 mg/dL
- Creatinine (nephrotoxicity) [1, 8]: 0.70 ± 0.09 mg/dL
- ALT (hepatotoxicity) [2, 7]: 82.2 ± 17.6 IU/L
- AST (hepatotoxicity) [2, 7]: 332.2 ± 27.1 IU/L
- ALT (hepatotoxicity) [2, 8]: 179.4 ± 12.9 IU/L
- AST (hepatotoxicity) [2, 8]: 395.6 ± 32.6 IU/L
- Antidote activity against toxicity (nephrotoxicity and hepatotoxicity) caused by APAP [4]: effective in reducing or eradicating toxicity

SMILES: O=c1cc(-c2ccc(O)c(O)c2)oc2cc(O)cc(O)c12 [Luteolin]
- BUN (nephrotoxicity) [1, 7]: 23.7 ± 4.4 mg/dL
- Creatinine (nephrotoxicity) [1, 7]: 0.25 ± 0.07 mg/dL
- BUN (nephrotoxicity) [1, 8]: 31.5 ± 7.3 mg/dL
- Creatinine (nephrotoxicity) [1, 8]: 0.43 ± 0.08 mg/dL
- ALT (hepatotoxicity) [2, 7]: 57.1 ± 14.7 IU/L
- AST (hepatotoxicity) [2, 7]: 223.8 ± 15.5 IU/L
- ALT (hepatotoxicity) [2, 8]: 78.9 ± 15.7 IU/L
- AST (hepatotoxicity) [2, 8]: 279.1 ± 35.1 IU/L
- Antidote activity against toxicity (nephrotoxicity and hepatotoxicity) caused by APAP [4]: effective in reducing or eradicating toxicity

SMILES: OC[C@@H](O)[C@@H](O)[C@H](O)[C@H](O)CO [Mannitol]
- BUN (nephrotoxicity) [1, 9]: 41.0 ± 2.6 mg/dL
- Creatinine (nephrotoxicity) [1, 9]: 0.56 ± 0.13 mg/dL
- ALT (hepatotoxicity) [2, 9]: 91.9 ± 8.4 IU/L
- AST (hepatotoxicity) [2, 9]: 365.7 ± 35.5 IU/L
- Antidote activity against toxicity (nephrotoxicity and hepatotoxicity) caused by APAP [4]: effective in reducing or eradicating toxicity

SMILES: CC(=O)N[C@@H](CS)C(=O)O [NAC, N-acetylcysteine, reference compound]
- BUN (nephrotoxicity) [1, 9]: 48.4 ± 9.8 mg/dL
- Creatinine (nephrotoxicity) [1, 9]: 0.64 ± 0.05 mg/dL
- ALT (hepatotoxicity) [2, 9]: 206.7 ± 20.1 IU/L
- AST (hepatotoxicity) [2, 9]: 423.7 ± 38.1 IU/L
- Kidney histology (renal lesions), FIG. 1 ([3]; acetaminophen 1 g/kg plus antidote): Mild to moderate degenerations were seen; also recorded: reduced to mild to moderate level

SMILES: O=C1C[C@@H](c2ccc(O)cc2)Oc2cc(O)cc(O)c21 [Nariagenin]
- BUN (nephrotoxicity) [1, 9]: 36.0 ± 7.8 mg/dL
- Creatinine (nephrotoxicity) [1, 9]: 0.32 ± 0.03 mg/dL
- ALT (hepatotoxicity) [2, 9]: 63.1 ± 11.6 IU/L
- AST (hepatotoxicity) [2, 9]: 231.1 ± 39.0 IU/L
- Antidote activity against toxicity (nephrotoxicity and hepatotoxicity) caused by APAP [4]: effective in reducing or eradicating toxicity

SMILES: OC[C@H]1O[C@H](O[C@]2(CCl)O[C@H](CCl)[C@@H](O)[C@@H]2O)[C@H](O)[C@@H](O)[C@H]1Cl [Sucralose]
- BUN (nephrotoxicity) [1, 9]: 33.6 ± 2.7 mg/dL
- Creatinine (nephrotoxicity) [1, 9]: 0.40 ± 0.15 mg/dL
- ALT (hepatotoxicity) [2, 9]: 82.8 ± 8.4 IU/L
- AST (hepatotoxicity) [2, 9]: 288.4 ± 33.8 IU/L
- Antidote activity against toxicity (nephrotoxicity and hepatotoxicity) caused by APAP [4]: effective in reducing or eradicating toxicity
